The values that follow come from ChEMBL document CHEMBL5344466, “Pyrrolidinone Derivatives as NIK Inhibitors for Treating Inflammatory and Autoimmune Diseases” (ACS Med Chem Lett, 2024).

For this test, the target named is Mitogen-activated protein kinase kinase kinase 14 (Homo sapiens, UniProt Q99558). Kind of test: Inhibition of auto-phosphorylation of human GST-tagged NIK/MAP3K14 measured for 2 hrs by AlphaScreen assay.
Mitogen-activated protein kinase kinase kinase 14, sequence (Q99558 whole entry): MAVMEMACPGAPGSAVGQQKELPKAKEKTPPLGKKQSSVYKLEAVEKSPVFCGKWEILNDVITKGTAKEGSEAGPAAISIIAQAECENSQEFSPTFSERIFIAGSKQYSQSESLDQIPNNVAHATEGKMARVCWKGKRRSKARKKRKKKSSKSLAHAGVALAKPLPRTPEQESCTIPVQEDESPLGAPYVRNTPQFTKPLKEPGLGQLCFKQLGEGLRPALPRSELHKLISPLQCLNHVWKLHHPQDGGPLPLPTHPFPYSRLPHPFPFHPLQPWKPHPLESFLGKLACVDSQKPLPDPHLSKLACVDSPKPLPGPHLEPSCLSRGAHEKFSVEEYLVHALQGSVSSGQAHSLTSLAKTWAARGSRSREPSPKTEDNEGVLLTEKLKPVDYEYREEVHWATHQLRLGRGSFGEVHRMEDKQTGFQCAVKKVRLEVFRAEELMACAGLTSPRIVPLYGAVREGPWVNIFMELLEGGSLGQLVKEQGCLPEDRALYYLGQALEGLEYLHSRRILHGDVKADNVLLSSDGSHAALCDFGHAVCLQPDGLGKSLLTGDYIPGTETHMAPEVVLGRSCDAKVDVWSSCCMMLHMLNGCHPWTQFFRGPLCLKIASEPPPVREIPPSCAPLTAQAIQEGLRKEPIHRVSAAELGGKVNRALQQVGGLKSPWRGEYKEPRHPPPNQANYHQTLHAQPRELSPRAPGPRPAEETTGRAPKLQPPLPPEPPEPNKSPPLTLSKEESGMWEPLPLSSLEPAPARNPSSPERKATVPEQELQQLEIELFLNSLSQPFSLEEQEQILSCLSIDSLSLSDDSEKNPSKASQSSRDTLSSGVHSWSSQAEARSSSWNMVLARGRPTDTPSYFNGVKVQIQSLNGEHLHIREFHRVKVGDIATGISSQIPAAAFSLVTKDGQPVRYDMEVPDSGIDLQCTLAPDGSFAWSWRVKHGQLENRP
For the compound `CN1CCC(O)(c2cn(-c3cccc(-c4nc(C(N)=O)c5ccccc5n4)c3)cn2)C1=O` (stereo unspecified), the half-inhibitory concentration (IC50) is below 100 nM.

The compound `CN1CC[C@@](O)(c2cc(-c3cccc(-c4cc(C5CC5)nc(C(N)=O)n4)c3)no2)C1=O` displayed an IC50 below 100 nM.

The compound `CN1CC[C@@](O)(c2cc(-c3cccc(-c4nc(C(N)=O)c(Br)s4)c3)no2)C1=O` came in with an IC50 below 100 nM.

Turning to `CN1CC[C@@](O)(c2cc(-c3cccc(-c4ccc(C(N)=O)o4)c3)no2)C1=O`, the IC50 was below 100 nM.

Compound `CN1CC[C@@](O)(c2cc(-c3cccc(-c4cc(N5CC(F)(F)C5)cc(C(N)=O)n4)c3)no2)C1=O` yielded a half-inhibitory concentration (IC50) below 100 nM.

As to `[2H]c1nc(N)c2nc(-c3cccc(-c4cnc([C@@]5(O)CCN(C)C5=O)s4)c3)ccc2n1`, the IC50 was below 100 nM.
